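Dose response: 5 concentrations. Exposure: 48 h. Format: 96-well plates. Endpoint: linear interpolation; highest concentration if not reached. GI50 marks 50% less growth.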 Calls of active or inactive are those of the source. Cut-off read from the data, not from the text of the source: active = GI50 up to about 1.1 µM and inactive = higher.
What was measured:
Assay in all cases: NCI tumour cell line growth inhibition, 48 h
A498 = system: A498
ACHN = system: ACHN
CCRF-CEM = system: CCRF-CEM
COLO 205 = system: COLO 205
HCC 2998 = system: HCC 2998
HL-60 = system: HL-60
HOP-62 = system: HOP-62
HT-29 = system: HT-29
MCF7 = system: MCF7
Malme-3M = system: Malme-3M
NCI-H226 = system: NCI-H226
NCI-H23 = system: NCI-H23
NCI-H522 = system: NCI-H522
OVCAR-4 = system: OVCAR-4
OVCAR-5 = system: OVCAR-5
OVCAR-8 = system: OVCAR-8
SK-MEL-2 = system: SK-MEL-2
SR = system: SR
TK-10 = system: TK-10
786-0 = system: 786-0

Measured: GI50

Fc1ccc(C(OCCN2CCN(CCCc3ccccc3)CC2)c2ccc(F)cc2)cc1
inactive: A498 6.97 µM | ACHN 5.82 µM | CCRF-CEM 4.5 µM | COLO 205 2.75 µM | HCC 2998 3.79 µM | HL-60 4.2 µM | HOP-62 5.32 µM | HT-29 3.13 µM | MCF7 4.59 µM | Malme-3M 5.31 µM | NCI-H226 3.75 µM | NCI-H23 4.04 µM | NCI-H522 3.48 µM | OVCAR-4 4.15 µM | OVCAR-5 4.5 µM | OVCAR-8 3.92 µM | SK-MEL-2 3.75 µM | SR 2.71 µM | TK-10 5.77 µM

CC(C)(C)OC(=O)NC(Cc1ccccc1)C(=O)N[C@H]1c2ccsc2/C(=N/O)[C@H]1O (some centres not stated)
inactive: A498 > 100 µM | CCRF-CEM > 100 µM | COLO 205 > 100 µM | HCC 2998 > 100 µM | HL-60 86.1 µM | HOP-62 > 100 µM | HT-29 > 100 µM | MCF7 > 100 µM | Malme-3M > 100 µM | NCI-H226 > 100 µM | NCI-H23 > 100 µM | OVCAR-4 35.2 µM | OVCAR-5 > 100 µM | OVCAR-8 > 100 µM | SK-MEL-2 > 100 µM | SR > 100 µM | TK-10 > 100 µM

C/C(=N\NC(=O)c1ccncc1)c1sc(-n2nc(-c3ccccc3)cc2-c2ccccc2)nc1C
inactive: 786-0 > 31.6 µM | A498 > 100 µM | ACHN > 31.6 µM | CCRF-CEM > 31.6 µM | COLO 205 > 100 µM | HCC 2998 > 31.6 µM | HL-60 21.5 µM | HOP-62 > 31.6 µM | HT-29 > 100 µM | MCF7 > 31.6 µM | Malme-3M > 56.2 µM | NCI-H226 > 64.1 µM | NCI-H23 > 31.6 µM | NCI-H522 > 35.7 µM | OVCAR-4 > 31.6 µM | OVCAR-5 > 31.6 µM | OVCAR-8 > 100 µM | SK-MEL-2 > 31.6 µM | SR 25.5 µM | TK-10 > 31.6 µM

Cc1ccc2nc(NC(=O)/C(Cc3nc4ccc(Cl)cc4nc3O)=N\NC(C)(C)C)sc2c1
inactive: 786-0 > 100 µM | A498 > 100 µM | ACHN > 100 µM | CCRF-CEM > 100 µM | COLO 205 > 100 µM | HCC 2998 > 100 µM | HL-60 > 100 µM | HT-29 > 100 µM | MCF7 > 100 µM | NCI-H226 9.59 µM | NCI-H23 > 100 µM | OVCAR-4 12.5 µM | OVCAR-5 > 100 µM | OVCAR-8 > 100 µM | SK-MEL-2 > 100 µM | SR > 100 µM

CC1CCC2C(C(=O)O[C@H]3C4CCO[C@@H](OC5OC(CO)C(O)C(O)C5O)C4[C@@]4(CO)O[C@@H]34)=CO[C@@H](OC3OC(CO)C(O)C(O)C3O)C12 (some centres not stated)
inactive: 786-0 > 10 µM | A498 > 10 µM | ACHN > 10 µM | CCRF-CEM > 10 µM | HCC 2998 > 10 µM | HL-60 > 10 µM | HOP-62 > 10 µM | HT-29 > 10 µM | MCF7 > 10 µM | Malme-3M > 10 µM | NCI-H226 > 10 µM | NCI-H23 > 10 µM | OVCAR-5 > 10 µM | OVCAR-8 > 10 µM | SK-MEL-2 > 10 µM | SR > 10 µM | TK-10 > 10 µM

CO[C@H]1c2cccc3cccc(c23)[C@@H]1n1[nH]c(=O)n(C(C)(C)C)c1=O
inactive: 786-0 > 100 µM | A498 > 100 µM | CCRF-CEM > 100 µM | COLO 205 > 100 µM | HCC 2998 > 100 µM | HL-60 > 100 µM | HT-29 > 100 µM | MCF7 > 100 µM | Malme-3M > 100 µM | NCI-H226 > 100 µM | NCI-H23 > 100 µM | NCI-H522 > 100 µM | OVCAR-4 > 100 µM | OVCAR-5 > 100 µM | OVCAR-8 > 100 µM | SK-MEL-2 > 100 µM | SR > 100 µM | TK-10 > 100 µM

Fc1cccc(C2ON=C(c3ccccc3)N2C23CC4CC(CC(C4)C2)C3)c1 (configuration not stated)
inactive: 786-0 > 10 µM | A498 > 10 µM | ACHN > 10 µM | COLO 205 > 10 µM | HCC 2998 > 10 µM | HL-60 > 10 µM | HOP-62 > 10 µM | HT-29 > 10 µM | MCF7 > 10 µM | Malme-3M > 10 µM | NCI-H226 > 10 µM | NCI-H23 > 10 µM | NCI-H522 > 10 µM | OVCAR-4 > 10 µM | OVCAR-5 > 10 µM | OVCAR-8 > 10 µM | SK-MEL-2 > 10 µM | SR 8.97 µM | TK-10 > 10 µM

CCCCCCCCCCCCCCCCP(=O)([O-])OCC[N+](C)(C)C
inactive: 786-0 7.46 µM | A498 14.5 µM | ACHN 16.5 µM | CCRF-CEM 8.47 µM | COLO 205 6.58 µM | HCC 2998 6.19 µM | HOP-62 15.2 µM | HT-29 12.7 µM | MCF7 17.5 µM | Malme-3M 21.3 µM | NCI-H226 23 µM | NCI-H23 20.2 µM | NCI-H522 22.6 µM | OVCAR-4 19.1 µM | OVCAR-5 8.55 µM | OVCAR-8 16.9 µM | SK-MEL-2 15.1 µM | SR 10.4 µM | TK-10 1.5 µM

OCC1COc2cc(Cl)c(Cl)cc2O1 (configuration not stated)
inactive: A498 > 10 µM | ACHN > 10 µM | CCRF-CEM > 10 µM | COLO 205 > 10 µM | HCC 2998 > 10 µM | HL-60 > 10 µM | HOP-62 > 10 µM | HT-29 > 10 µM | MCF7 > 10 µM | Malme-3M > 10 µM | NCI-H226 6.3 µM | NCI-H23 > 10 µM | NCI-H522 1.42 µM | OVCAR-4 > 10 µM | OVCAR-5 > 10 µM | OVCAR-8 > 10 µM | SK-MEL-2 > 10 µM | SR > 10 µM | TK-10 > 10 µM

C=C1CC[C@](C)(O)[C@@]2(C)CC[C@H]3C(=C(C)C)C(=O)C[C@]3(C)C[C@H]12
inactive: 786-0 14.6 µM | A498 > 50 µM | ACHN 42.8 µM | CCRF-CEM 10.9 µM | COLO 205 36.1 µM | HCC 2998 23 µM | HL-60 7.6 µM | HOP-62 > 50 µM | HT-29 18.3 µM | MCF7 28.4 µM | NCI-H226 > 50 µM | NCI-H23 > 50 µM | NCI-H522 14.3 µM | OVCAR-4 > 50 µM | OVCAR-5 > 50 µM | OVCAR-8 > 50 µM | SK-MEL-2 > 50 µM | SR 13.4 µM | TK-10 > 50 µM

N#CC(=S)Nc1ccc(F)cc1
inactive: 786-0 53.8 µM | A498 32.7 µM | ACHN 60 µM | CCRF-CEM 22.4 µM | COLO 205 22.4 µM | HCC 2998 45.4 µM | HL-60 30.4 µM | HOP-62 > 100 µM | HT-29 67.8 µM | MCF7 64.7 µM | Malme-3M 50.2 µM | NCI-H226 78.5 µM | NCI-H23 53.7 µM | OVCAR-4 28.6 µM | OVCAR-5 83.9 µM | OVCAR-8 96.2 µM | SK-MEL-2 > 100 µM | SR 40.6 µM | TK-10 39.1 µM
